Source: patent US10561704B2, “Compositions and methods for treating neuropsychiatric disorders using an endothelin-B receptor agonist” (MIDWESTERN UNIVERSITY, priority 2013, dated 2020)
*1 amine or outer side, *2 acyl side, *3 side chain or, on linkers, in order; H or OH if unused. Where no end group is shown, it is not given here. Suc = O=C(CCC(=O)[*:2])[*:1]

Experiments:
postnatal rat brain [1] = test: Immunoblotting of VEGF, NGF and ETB receptors in the postnatal rat brain after IRL-1620; format: in vivo, Sprague-Dawley rats
Description: (§1) After 21 days of gestation, 70 male and 65 female pups were born to 10 pregnant female rats. 30 male pups were randomly selected for Study I, and divided into 4 groups as follows: Group 1=male pups euthanized on postnatal day 1 (N=10); Group 2=male pups euthanized on postnatal day 7 (N=10); Group 3=male pups euthanized on postnatal day 14 (N=5); Group 4=male pups euthanized on postnatal day 28 (N=5). An additional 20 male pups were randomly selected for Study II, and divided into 2 groups: Control (N=10) and IRL-1620-treated (N=10). Pups in Study II received 3 doses of either isotonic saline (1 ml/kg) or ETB receptor agonist IRL-1620 (5 μg/kg; American Peptide Co, Inc., Sunnyvale, Calif.) on postnatal day 21. The doses were given intravenously at 2 hour intervals. All pups were weighed and evaluated for developmental and behavioral characteristics at postnatal day 1, 7, 14 and 28. Developmental and behavioral characteristics included active vs. sluggish behavior, healthy vs. shedding fur, licking, grooming, aggressive behavior, defecation, urination and wet dog shakes.
Protein levels of VEGF, NGF and ETB receptors in the postnatal rat brain of animals in Study II were estimated using immunoblotting technique. Animals were decapitated and the brains were removed on postnatal day 28, which is 7 days post administration of either saline or ETB receptor agonist, IRL-1620. The tissue was homogenized in 10× (w/v) RIPA lysis buffer, and protein concentration was determined according to the Lowry method, using bovine serum albumin as standard (Lowry et al., 1951). Protein (60 μg) was denatured in Laemmli sample buffer and resolved in 10% SDS-PAGE, and then transferred onto nitrocellulose membrane. […] Protein expression was analyzed using Image J (NIH) software.

postnatal rat brain [2] = test: Immunofluorescent labeling of ETB receptors, VEGF and NGF in the postnatal rat brain after IRL-1620; format: in vivo, Sprague-Dawley rats; conditions: IRL-1620 on postnatal day 21, brain at day 28, vs control
Procedure: Timed pregnant female Sprague-Dawley rats (Harlan, Indianapolis, Ind.) were caged singly in a room controlled for ambient temperature (23±1° C.), humidity (50±10%) and a 12 h light/dark cycle (6:00 am-6:00 pm). Food and water were available ad libitum. All animal care and use for procedures were approved by the Institutional Animal Care and Use Committee (IACUC) of Midwestern University. In order to avoid variation due to hormonal changes, male pups only were separated and utilized for this study. The pups were euthanized via decapitation on postnatal day 1, 7, 14 and 28. The brains were aseptically removed and processed for either immunofluorescent labeling or immunoblot analysis of ETB receptors, VEGF and NGF.
as §1
Immunofluorescently labeled antibodies were used to determine the expression of ETB receptors, VEGF and NGF in the developing rat brain. Male rat pups were euthanized via decapitation, and the brains were removed at postnatal day 1, 7, 14 and 28. The brains were washed in isotonic saline and transferred to a 4% paraformaldehyde (PFA)/NaPO4 buffer solution for 2 hours to fix the tissue, followed by suspension in a 20% sucrose/4% PFA solution for 48 hours at 4° C. Brains were then sliced into 20 μm thick coronal sections at −30° C. using a cryostat (Microtome cryostat HM 505 E; Walldorf, Germany). Sections were processed for immunofluorescent staining as described by Loo, et al. (Loo et al., 2002), with minor modifications. […] Fluorescence was detected using an inverted fluorescent microscope (Nikon Eclipse TiE, Melville, N.Y.). […]

[3] = tested on: middle cerebral artery occluded rats; conditions: acute study, 24 hours (Leonard et al., 2011); cited from earlier work
normal rats = conditions: intravenous; cited from earlier work
[4] = IRL-1620 on postnatal day 21, brain at day 28, vs control

Substance: Suc-Asp-Glu-Glu-Ala-Val-Tyr-Phe-Ala-His-Leu-Asp-Ile-Ile-Trp (Suc-DEEAVYFAHLDIIW) [IRL-1620]
- Protein expression of ETB receptors (immunoblotting) (postnatal rat brain [1]; IRL-1620 5 μg/kg IV x3 on postnatal day 21, brain at day 28, vs control): increased
- Overall VEGF expression (immunoblotting) (postnatal rat brain [1]; [4]): significantly enhanced
- Overall expression of NGF (immunoblotting) (postnatal rat brain [1]; [4]): comparable
- Intensity of ETB receptor staining in cerebral vasculature and cortex (postnatal rat brain [2]): significantly higher
- Intensity of NGF staining and number of NGF-positive cells, cortex or subventricular zones (postnatal rat brain [2]): did not alter
- Intensity of VEGF staining (postnatal rat brain [2]): further increase
- Number of VEGF-positive vessels (postnatal rat brain [2]): further increase
- Reduction of infarct volume [3]: 83.66%
- Cerebral blood flow (CBF) (normal rats): significant elevation
